{"source": "patent US20250195474A1", "about": "“Piezo Inhibition for Wound Healing” (priority 2022, published 2025)", "key": {"human adipocytes [1]": {"system": "human adipocytes", "assay": "Calcium imaging of hydrogel-bound adipocytes (Fluo-4 AM)", "type": "cell-based", "details": "stretched human adipocytes", "source_text": "Calcium imaging was used to determine in vitro Ca^2+ flow in hydrogel-bound adipocytes with or without mechanical strain and with or without Piezo1 inhibitor treatment. A Fluo-4, AM cell permeant kit (ThermoFisher, Cat: F-14201) was used per the manufacturer's instructions. […] Imagej was used for image quantification."}, "existing scars [2]": {"system": "existing scars", "assay": "Treatment of existing scars during remodeling (scar rescue)", "type": "in vivo, mouse", "source_text": "While wound re-epithelialization is complete relatively quickly (around 2 weeks), wounds continue to heal beneath the surface for months to years in a process known as scar remodeling. (Foster et al., 2021; Gurtner et al., 2008) Remodeling is the longest and least well understood phase of wound repair but is likely critical to ultimate outcomes. We postulated that ADFs could continue to play a role in scarring during the remodeling process; if this were the case, we wondered whether ADF activity could be targeted during wound remodeling, via P1i in existing, actively remodeling scars, to ultimately reduce scarring and drive regeneration (FIG. 6A,C). Thus, we administered P1i to existing scars at POD 30 (early remodeling period), POD 75 (mid-remodeling), and POD 120 (late remodeling), then harvested tissue one month later at POD 60, POD 105, and […] respectively (FIG. 6A, C)."}, "existing scars [3]": {"system": "existing scars", "assay": "Visium spatial transcriptomic analysis of treated existing scars", "type": "in vivo, mouse", "method": "Wound specimens were rapidly harvested and flash frozen in OCT. Using the Visium Tissue Optimization Slide and Reagent Kit, permeabilization time was optimized at a thickness at 10 μm per section and 37 minutes for mouse tissue. Following cryo-sectioning at −20 degrees onto gene expression slides the expression slide and reagent kit was used to produce sequencing libraries. The libraries were then sequences using NextSeq (Illumina). Following demultiplication the raw FASTQ files and histology images were processed by sample with the Space Ranger software for genome alignment. The raw spaceranger output files for each sample was then read into a Seurat class object in R using Seurat's Load10× function. Data was normalized using the SCT transform with default parameters. To ascertain the integration of our scRNAseq and Visium spatial analysis we employed the FindTransferAnchors( ) function from Seurat, which allowed the alignment of data using the two datasets. This cross-platform linkage is performed serially in an unconstrained and constrained fashion.\nTo further analyze the spatial gene expression following scar rescue, the Visium platform was applied to scars treated with P1i or PBS at POD 30, 75, and 120 (FIG. 9A). Similar to analysis of acute wound healing, the epidermal, dermal, and hypodermal layers were easily elucidated from the spatial transcriptomic analysis in scars at POD 60 (FIG. 9B). Furthermore, the expected cell types including fibroblasts, immune, epithelial, and adipocytes were identified by spatial expression of representative genes (FIG. 36A)."}, "[4]": {"system": "human xenograft fibroblasts", "assay": "scRNA-seq of human xenograft wounds at POD 14", "type": "in vivo", "method": "To assess if P1i acts on similar fibroblast clusters to cause regeneration, scRNA-seq analysis was performed on xenografts harvested at POD 14 post injury using a hybrid human-mouse xeno-transcriptome (FIG. 12A). Mouse cells were removed informatically and subsequent analysis focused exclusively on human cells (FIG. 41A). Partitional analysis identified 8 transcriptionally distinct clusters (FIG. 12B-C), corresponding to fibroblast and keratinocyte populations (FIG. 41A). Each cluster was present in all three treatment conditions but Cluster 3 was elevated in P1i treated wounds (FIG. 12D, FIG. 41B). […] This cluster was also enriched for pathways such as “skin morphogenesis”, as well as “neural crest differentiation” (FIG. 12G). By contrast, Cluster 0 was enriched for pathways related to adipocyte differentiation (FIG. 41C) and elevated expression of genes related to adipocyte-fibroblast transition (FIG. 41C) including expression of JUN a transcription factor associated with fibrosis (FIG. 41D)."}, "[5]": {"system": "human foreskin xenograft wounds", "assay": "CODEX analysis of human xenograft wounds at POD 14", "type": "in vivo", "source_text": "To spatially phenotype the pig specimens, we used Co-Detection by Indexing (CODEX), a novel assay in which markers are labeled with oligonucleotide-conjugated antibodies and iteratively imaged between cyclic additions and washouts of dye-labeled oligonucleotides. A custom CODEX panel was designed to assess wound cells within the tissue see Table 1). In brief, primary antibodies were individually barcoded and validated using the commercial supplier's protocols. OCT for mouse or paraffin blocks for human xenograft (n=3 per group) were sectioned at 8 μm thickness onto coverslips for CODEX antibody staining. Antigens were retrieved by standard citrate-EDTA processing prior to addition of CODEX antibodies. Using a CODEX-integrated Keyence BZ-X instrument (Akoya Biosciences) image acquisition was then performed. Using software from Akoya Biosciences the raw images were process, with cell segmentation, and rendering.\nThe CODEX was visualized using Akoya Biosciences Multiplex Analysis Viewer (MAV) in ImageJ. The resulting .fcs files were then concatenated in FlowJo and imported into the Monocle3 and STvEA R packages for further analysis. After debris removal, the processed UMAP manifold was analyzed through Monocle3 with a post-manifold threshold of >10,000 cells per cluster. Analysis of the protein staining patterns was then used to assign cell types. The cell interactions were then inferred using STvEA for cell types at >2.5% of total abundance at k=20 nearest neighbors to quantify cell spatial interactions, and differential interaction maps were generated using graph scores.\nWhile scRNA-seq of human xenografts investigates human fibroblast subpopulations at a transcriptomic level, we further utilized CODEX to analyze spatially defined protein expression and cellular organization (FIG. 13A; markers shown in Table 1 right column). Specifically, we compared the spatial microenvironment of PBS, P1i, and unwounded skin at POD 14. […]"}, "human adipocytes [6]": {"system": "human adipocytes", "assay": "Human adipocyte-populated collagen I hydrogels with or without mechanical stretch", "details": "10% equibiaxial strain, 7 days"}, "[7]": {"details": "treated at POD 30, 75 or 120, harvested one month later"}}, "note": "No end group written: not given here."}
{"substance": "GsMTx4 (GCLEFWWKCNPNDDKCCRPKLKCSKLFKLCNFSF; ends and bridges not checked; cysteine pairing not given here; UniProt Q7YT39 47-80, looked up) [P1i]", "values": [{"measurement": "calcium staining with stretching", "setting": "human adipocytes [1]", "result": "decreased"}, {"measurement": "organization of hair follicles", "setting": "existing scars [2]; POD 105 and 120 vs POD 60", "result": "less organized than those at POD 60"}, {"measurement": "ADFs in late treated wounds", "setting": "existing scars [2]; late treatment of existing scars", "result": "significantly reduced"}, {"measurement": "ECM architecture in existing scars", "setting": "existing scars [2]; [7]", "result": "full recovery of unwounded-like ECM architecture"}, {"measurement": "hair follicles in existing scars", "setting": "existing scars [2]; [7]", "result": "return of hair follicles"}, {"measurement": "wound regeneration in existing scars", "setting": "existing scars [2]; [7]", "result": "near-complete wound regeneration"}, {"measurement": "spatially identified adipocytes", "setting": "existing scars [3]; POD 60, 105 and 150, vs PBS", "result": "greater in number"}, {"measurement": "differential interaction maps (Visium)", "setting": "existing scars [3]; existing scars", "result": "larger number of interactions between adipocytes and epithelial cells"}, {"measurement": "differentially expressed genes during scar rescue", "setting": "existing scars [3]; existing scars", "result": "high expression of genes associated with the epidermis"}, {"measurement": "spatial expression of Piezo1, Piezo2, Yap1 and Ptk2", "setting": "existing scars [3]; existing scars, all timepoints", "result": "observed mostly at the basal aspects of the wounds"}, {"measurement": "expression of TWIST2, WNT5A, CALU and SFRP2", "setting": "[4]; POD 14", "result": "highly expressed"}, {"measurement": "representation of human cluster 3", "setting": "[4]; POD 14", "result": "elevated"}, {"measurement": "CellChat cluster 0 activity with other clusters", "setting": "[4]; POD 14, vs control wounds", "result": "downregulation"}, {"measurement": "interactions between fibroblasts and adipocytes", "setting": "[5]; POD 14", "result": "PBS-treated wounds showed broadly enriched interactions between fibroblasts and adipocytes compared to P1i-treated wounds"}, {"measurement": "interactions of adipocytes 4", "setting": "[5]; POD 14", "result": "strong crosstalk between adipocytes 4 and epithelial cells"}, {"measurement": "relative proportions of CODEX defined adipocyte clusters", "setting": "[5]; POD 14, vs PBS, p<0.05", "result": "fewer of the adipocyte 1 subtype and more of the adipocyte 4 subtype"}, {"measurement": "stretch-induced hypertrophy of human adipocytes", "setting": "human adipocytes [6]", "result": "reversed"}]}
